Measurements taken from the supplement of paper PMC10307832.

Assays:
Test in all cases: relative viability (nuclei count vs DMSO), 5 days (fraction); higher = more cells survive
DM3189 + Pictilisib = compound: C1CN(CCN1)C2=CC=C(C=C2)C3=CN4C(=C(C=N4)C5=CC=NC6=CC=CC=C56)N=C3 [DM3189] + CS(=O)(=O)N1CCN(Cc2cc3nc(-c4cccc5[nH]ncc45)nc(N4CCOCC4)c3s2)CC1 [Pictilisib] (partner 1 µM)
In short: (§1)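 Relative viability equals treated-well nuclei counts divided by vehicle-well nuclei counts. Counts came from 4× images of lung cancer cell lines grown in 1536-well plates for 5 days after pin-tool dosing on the day after seeding. Dosing used one drug alone or a fixed anchor-drug dose plus five library-drug doses (not always all listed) in √10 steps, and values are medians of duplicate plates.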

DM3189 + Alpelisib = compound: C1CN(CCN1)C2=CC=C(C=C2)C3=CN4C(=C(C=N4)C5=CC=NC6=CC=CC=C56)N=C3 [DM3189] + Cc1nc(NC(=O)N2CCC[C@H]2C(N)=O)sc1-c1ccnc(C(C)(C)C(F)(F)F)c1 [Alpelisib] (partner 2 µM)
In short: as §1

DM3189 + Tozasertib = compound: C1CN(CCN1)C2=CC=C(C=C2)C3=CN4C(=C(C=N4)C5=CC=NC6=CC=CC=C56)N=C3 [DM3189] + Cc1cc(Nc2cc(N3CCN(C)CC3)nc(Sc3ccc(NC(=O)C4CC4)cc3)n2)n[nH]1 [Tozasertib] (partner 0.1 µM)
In short: as §1

DM3189 + Phenformin = compound: C1CN(CCN1)C2=CC=C(C=C2)C3=CN4C(=C(C=N4)C5=CC=NC6=CC=CC=C56)N=C3 [DM3189] + N=C(N)NC(=N)NCCc1ccccc1 [Phenformin] (partner 250 µM)
In short: as §1

DM3189 + Vorinostat = compound: C1CN(CCN1)C2=CC=C(C=C2)C3=CN4C(=C(C=N4)C5=CC=NC6=CC=CC=C56)N=C3 [DM3189] + O=C(CCCCCCC(=O)Nc1ccccc1)NO [Vorinostat] (partner 1 µM)
In short: as §1

| Cell Line | relative viability (DM3189 + Pictilisib; first compound 0.08 µM) | relative viability (DM3189 + Pictilisib; first compound 0.253 µM) | relative viability (DM3189 + Pictilisib; first compound 0.8 µM) | relative viability (DM3189 + Pictilisib; first compound 2.53 µM) | relative viability (DM3189 + Alpelisib; first compound 0.08 µM) | relative viability (DM3189 + Alpelisib; first compound 0.253 µM) | relative viability (DM3189 + Alpelisib; first compound 0.8 µM) | relative viability (DM3189 + Alpelisib; first compound 2.53 µM) | relative viability (DM3189 + Tozasertib; first compound 0.08 µM) | relative viability (DM3189 + Tozasertib; first compound 0.253 µM) | relative viability (DM3189 + Tozasertib; first compound 0.8 µM) | relative viability (DM3189 + Tozasertib; first compound 2.53 µM) | relative viability (DM3189 + Phenformin; first compound 0.08 µM) | relative viability (DM3189 + Phenformin; first compound 0.253 µM) | relative viability (DM3189 + Phenformin; first compound 0.8 µM) | relative viability (DM3189 + Phenformin; first compound 2.53 µM) | relative viability (DM3189 + Vorinostat; first compound 0.08 µM) | relative viability (DM3189 + Vorinostat; first compound 0.253 µM) | relative viability (DM3189 + Vorinostat; first compound 0.8 µM) | relative viability (DM3189 + Vorinostat; first compound 2.53 µM) |
| --- | --- | --- | --- | --- | --- | --- | --- | --- | --- | --- | --- | --- | --- | --- | --- | --- | --- | --- | --- | --- |
| NCI-H1734 | 0.541 | 0.417 | 0.442 | 0.383 | 0.677 | 0.706 | 0.635 | 0.661 | 0.28 | 0.266 | 0.228 | 0.22 | 0.344 | 0.381 | 0.37 | 0.332 | 0.842 | 0.805 | 0.718 | 0.59 |
| NCI-H1755 | 0.51 | 0.417 | 0.334 | 0.399 | 0.848 | 0.877 | 0.815 | 0.926 | 0.475 | 0.493 | 0.453 | 0.524 | 0.698 | 0.589 | 0.511 | 0.566 | 0.771 | 0.659 | 0.695 | 0.685 |
| NCI-H1793 | 0.311 | 0.306 | 0.281 | 0.31 | 0.758 | 0.877 | 0.982 | 1.16 | 0.33 | 0.321 | 0.294 | 0.357 | 0.397 | 0.412 | 0.415 | 0.344 | 0.993 | 0.633 | 0.911 | 1.12 |
| NCI-H1915 | 0.974 | 0.915 | 0.646 | 0.891 | 1.09 | 0.973 | 0.898 | 1.04 | 0.455 | 0.431 | 0.402 | 0.404 | 0.392 | 0.361 | 0.355 | 0.301 | 0.49 | 0.508 | 0.383 | 0.482 |
| NCI-H1944 | 0.405 | 0.336 |  | 0.389 | 0.884 | 0.817 |  | 0.806 | 0.275 | 0.273 |  | 0.267 | 0.237 | 0.192 |  | 0.192 | 0.592 | 0.567 | 0.467 | 0.565 |
| NCI-H1975 | 0.42 | 0.309 | 0.269 | 0.201 | 0.869 | 0.718 | 0.658 | 0.342 | 0.652 | 0.693 | 0.649 | 0.541 | 0.455 | 0.38 | 0.4 | 0.329 | 0.803 | 0.732 | 0.701 | 0.687 |
| NCI-H1993 |  | 0.85 | 0.852 | 0.718 |  | 0.671 | 0.641 | 0.7 | 0.58 | 0.584 | 0.554 | 0.637 | 0.473 | 0.481 | 0.527 | 0.566 | 0.856 | 0.803 | 0.813 | 0.854 |
| NCI-H2009 | 1 | 0.725 | 0.572 | 0.75 | 1.17 | 1.16 | 1.13 | 1.15 | 0.678 | 0.69 | 0.67 | 0.673 | 0.526 | 0.471 | 0.438 | 0.445 | 0.705 | 0.647 | 0.733 | 0.888 |
| NCI-H2023 | 0.26 | 0.24 | 0.201 | 0.235 | 0.586 | 0.633 | 0.574 | 0.63 | 0.442 | 0.304 | 0.259 | 0.266 | 0.368 | 0.363 | 0.428 | 0.347 | 0.688 | 0.618 | 0.603 | 0.604 |
| NCI-H2085 | 0.379 | 0.473 | 0.393 | 0.409 | 0.968 | 0.962 | 0.976 | 0.893 | 0.903 | 0.747 | 0.898 | 0.951 | 0.722 | 0.72 | 0.633 | 0.75 | 0.87 | 0.742 | 0.795 | 0.906 |
| NCI-H2087 | 1.06 | 0.808 | 0.675 | 0.818 | 1.31 | 1.07 | 1.01 | 1.03 | 0.248 | 0.277 | 0.264 | 0.162 | 0.457 | 0.495 | 0.437 | 0.418 | 0.63 | 0.49 | 0.682 | 0.471 |
| NCI-H2126 | 0.544 | 0.53 | 0.465 | 0.478 | 0.838 | 0.745 | 0.763 | 0.805 | 0.823 | 0.767 | 0.739 | 0.803 | 0.576 | 0.529 | 0.483 | 0.522 | 0.998 | 0.769 | 0.742 | 0.705 |
| NCI-H2170 | 0.308 | 0.301 | 0.288 | 0.291 | 0.96 | 0.854 | 0.734 | 0.641 | 0.84 | 0.651 | 0.525 | 0.71 | 0.435 | 0.367 | 0.361 | 0.397 | 0.921 | 0.811 | 0.725 | 0.658 |
| NCI-H2228 | 0.362 | 0.33 | 0.329 | 0.283 | 0.683 | 0.79 | 0.513 | 0.211 | 0.236 | 0.207 | 0.227 | 0.156 | 0.368 | 0.344 | 0.29 | 0.189 | 0.541 | 0.773 | 0.593 | 0.279 |
| NCI-H2347 | 0.493 | 0.452 | 0.569 | 0.517 | 0.969 | 1 | 0.989 | 1.14 | 0.464 | 0.475 | 0.521 | 0.515 | 0.399 | 0.45 | 0.53 | 0.434 | 0.554 | 0.626 | 0.61 | 0.658 |
| NCI-H2405 | 0.467 | 0.378 | 0.422 | 0.408 | 0.527 | 0.709 | 0.58 | 0.677 | 0.791 | 0.7 | 0.741 | 0.692 | 0.384 | 0.351 | 0.416 | 0.411 | 1.16 | 1 | 0.942 | 0.992 |
